Where two headings read alike, the source gives them in different places. A value given as a limit tells only on which side of the number the result lay.

One series has as its system CML cell line K562. Put plainly: MTT cell viability assay, K562. The series is classed as cell-based, human. The note with it: for IC50: read-out: IC50 Values, K562 Cell Line; for SI (selectivity index): ratio of the IC50 between PBMC and K562 cells. As to the method:
A549 human lung carcinoma and HeLa human cervical carcinoma cell lines were cultured in Dulbecco’s Modified Eagle Medium (DMEM). […] In experiments, all cancer cell lines and PBMC were cultured in 24-well and 96-well plates (Iwaki brand Asahi Glass, Chiba, Japan) at 2 × 10^4 cells/mL and 1 × 10^6 cells/mL concentrations, respectively for 24 h.
The cells were then stained with MTT solution and incubated for additional 4 h. At the end of this period, supernatants were removed and 100 μL DMSO was added to each well to solubilize the formazan crystals. The absorbance of the solution was determined on the Infinitive M1000 (Tecan, Mannedorf, Switzerland) plate reader at a wavelength of 550 nm with background subtraction at 630 nm.

In series [1] the test system is peripheral blood mononuclear cells (PBMC). In words: MTT cell viability assay, PBMC. The format is cell-based. The note with it: 24 h exposure. As for the experimental part: A549 human lung carcinoma and HeLa human cervical carcinoma cell lines were cultured in Dulbecco’s Modified Eagle Medium (DMEM). MCF7 human breast cancer and leukemic (K562, HL-60, MT-2 and Jurkat) cells, and PBMC (Precision Bioservices, Frederic, MD, USA) were cultured in RPMI 1640. All media were purchased from FUJIFILM Wako (Osaka, Japan) and supplemented with 10% fetal bovine serum (FBS) (Sigma-Aldrich, St. Louis, MO, USA) and 89 μg/mL streptomycin (Meiji Seika Pharma, Tokyo, Japan) at 37 °C in a humid atmosphere and 5% CO2. In experiments, all cancer cell lines and PBMC were cultured in 24-well and 96-well plates (Iwaki brand Asahi Glass, Chiba, Japan) at 2 × 10^4 cells/mL and 1 × 10^6 cells/mL concentrations, respectively for 24 h.
The cells were exposed to various concentrations (1–100 μM) of the compounds for 24 h at 37 °C. The cells were then stained with MTT solution and incubated for additional 4 h. At the end of this period, supernatants were removed and 100 μL DMSO was added to each well to solubilize the formazan crystals. The absorbance of the solution was determined on the Infinitive M1000 (Tecan, Mannedorf, Switzerland) plate reader at a wavelength of 550 nm with background subtraction at 630 nm.

The subject of a further series is K562 cells. In words: Cell death detection (Hoechst 33342/annexin V/ethidium homodimer III staining). Conditions: K562, IC50 concentration, 8 h. The series is classed as cell-based, human. As to the method:
The cells were then briefly washed twice with 1 × binding buffer. A staining solution containing 50 μL of 1 × binding buffer and 5 μL of FITC-Annexin V solution, 5 μL of ethidium homodimer III solution, or 5 μL of Hoechst 33342 solution was added, and incubated for 15 min at room temperature in the dark. Then, the cells were washed with 1 × binding buffer, and analyzed by the all-in-one fluorescence microscope Biorevo Fluorescence BZ-9000 (Keyence, Osaka, Japan). The number of healthy cells (Hoechst 33342), apoptotic cells (Annexin V), late apoptotic or necrotic cells (Annexin V and Ethidium homodimer III) and necrotic cells (Ethidium homodimer III) were counted as previously described.

[2] abbreviates: Homo sapiens, K562, 24 h, MTT, 24 h exposure.

In the case of `C[C@H]1[C@H](C)CC[C@]2(C(=O)O)CC[C@]3(C)C(=CC[C@@H]4[C@@]5(C)C[C@@H](O)[C@H](O)[C@@](C)(CO)[C@@H]5CC[C@]43C)[C@H]12` [AA, asiatic acid, reference compound], the IC50 is 29.3 ± 3.42 µM in the series on CML cell line K562 (setting [2]) and greater than 100 µM in series [1] (PBMC). Moreover, in the series with CML cell line K562, the “SI (selectivity index)” value is on record as greater than 3.41.

With `C=C(C)[C@@H]1CC[C@]2(C(=O)O)CC[C@]3(C)[C@H](CC[C@@H]4[C@@]5(C)CC[C@H](O)C(C)(C)[C@@H]5CC[C@]43C)[C@@H]12` [BA, betulinic acid, reference compound], the IC50 in the series with CML cell line K562 (setting [2]) was 52.3 ± 4.79 µM; in series [1] (PBMC), greater than 100 µM. For the same compound, the “SI (selectivity index)” value with CML cell line K562 was greater than 1.91.

For the compound `CC1(C)[C@@H](O)CC[C@]2(C)[C@H]3C(=O)C=C4[C@@H]5C[C@@](C)(C(=O)O)CC[C@]5(C)CC[C@@]4(C)[C@]3(C)CC[C@@H]12` [GA, glycyrrhetinic acid, reference compound], the IC50 with CML cell line K562 (setting [2]) was 41 ± 5.34 µM; in series [1] (PBMC) it was greater than 100 µM. Besides, in the series with CML cell line K562, the “SI (selectivity index)” value is reported as greater than 2.43.

In turn, `COc1ccc(COC(=O)[C@]23CCC(C)(C)C[C@H]2C2=CC[C@@H]4[C@@]5(C)CC[C@H](O)[C@@](C)(C=O)[C@@H]5CC[C@@]4(C)[C@]2(C)CC3)cc1` [GP1, Gypsogenin 4-methoxybenzyl ester] registered a melting point of 78 to 80 °C. Besides, the IC50 with CML cell line K562 (setting [2]) stood at 5.53 ± 1.78 µM. The “SI (selectivity index)” value in the series on CML cell line K562 is 4.53. This compound had a half-inhibitory concentration (IC50) in series [1] (PBMC) of 25.1 ± 2.92 µM.

As for `CC1(C)CC[C@]2(C(=O)OCc3ccc(C(F)(F)F)cc3)CC[C@]3(C)C(=CC[C@@H]4[C@@]5(C)CC[C@H](O)[C@@](C)(C=O)[C@@H]5CC[C@]43C)[C@@H]2C1` [GP3, Gypsogenin 4-trifluoromethyl benzyl ester], the melting point lay in the range of 175 to 177 °C. Further, the IC50 with CML cell line K562 (setting [2]) was found to be 4.58 ± 1.49 µM. Moreover, the “SI (selectivity index)” value with CML cell line K562 is on record as 5.07. In series [1] (PBMC), inhibition was half-maximal at 23.2 ± 3.08 µM (IC50).

In the case of `CC1(C)CC[C@]2(C(=O)OCc3cc(F)cc(F)c3)CC[C@]3(C)C(=CC[C@@H]4[C@@]5(C)CC[C@H](O)[C@@](C)(C=O)[C@@H]5CC[C@]43C)[C@@H]2C1` [GP4, Gypsogenin 3,5-difluorobenzyl ester], the melting point fell in the range of 58 to 60 °C. In addition, the IC50 in the series on CML cell line K562 (setting [2]) worked out at 5.13 ± 1.38 µM. Further, the “SI (selectivity index)” value with CML cell line K562 is on record as 5.51. Moreover, half-maximal inhibition in series [1] (PBMC) (IC50) was put at 28.3 ± 2.25 µM.

As for `CC1(C)CC[C@]2(C(=O)O)CC[C@]3(C)C(=CC[C@@H]4[C@@]5(C)CC[C@H](O)[C@@](C)(CO)[C@@H]5CC[C@]43C)[C@@H]2C1` [HE, hederagenin, reference compound], the IC50 (in the series with CML cell line K562 (setting [2]); in series [1] (PBMC)) was greater than 100 µM in each case. For the same compound, the “SI (selectivity index)” value with CML cell line K562 is reported as greater than 1.

For `Cc1ccc(NC(=O)c2ccc(CN3CCN(C)CC3)cc2)cc1Nc1nccc(-c2cccnc2)n1` [Imatinib, reference compound], in the series on K562 cells, the “apoptotic effects on CML cell line” value worked out at 18% and the late apoptotic/necrotic effects is 5.6%.

`CC1(C)CC[C@]2(C(=O)O)CC[C@]3(C)C(=CC[C@@H]4[C@@]5(C)CC[C@H](O)C(C)(C)[C@@H]5CC[C@]43C)[C@@H]2C1` [OA, oleanolic acid, reference compound]: the IC50 is roughly 13 µM with CML cell line K562 (setting [2]); 13.5 ± 2.55 µM in the series with CML cell line K562 (MTT, 24 h exposure); greater than 100 µM in series [1] (PBMC).

Regarding `C[C@H]1[C@H](C)CC[C@]2(C(=O)OCc3ccccc3)CC[C@]3(C)C(=CC[C@@H]4[C@@]5(C)C[C@@H](O)[C@H](O)[C@@](C)(CO)[C@@H]5CC[C@]43C)[C@H]12` [PT1, Asiatic acid benzyl ester], the IC50 with CML cell line K562 (setting [2]) was 4.1 ± 0.85 µM; in series [1] (PBMC), 15.5 ± 1.08 µM. The “SI (selectivity index)” value in the series on CML cell line K562 came to 3.79.

On to `C=C(C)[C@@H]1CC[C@]2(C(=O)OCc3ccccc3)CC[C@]3(C)[C@H](CC[C@@H]4[C@@]5(C)CC[C@H](O)C(C)(C)[C@@H]5CC[C@]43C)[C@@H]12` [PT2, Betulinic acid benzyl ester], for which the IC50 in the series on CML cell line K562 (setting [2]) amounted to 8.49 ± 1.22 µM; in series [1] (PBMC), 28 ± 2.74 µM. Further, the “SI (selectivity index)” value with CML cell line K562 was 3.29.

For `CC1(C)[C@@H](O)CC[C@]2(C)[C@H]3C(=O)C=C4[C@@H]5C[C@@](C)(C(=O)OCc6ccccc6)CC[C@]5(C)CC[C@@]4(C)[C@]3(C)CC[C@@H]12` [PT3, Glycyrrhetic acid benzyl ester], the concentration for half-maximal inhibition (IC50) with CML cell line K562 (Homo sapiens, K562, 24 h) is 69.5 ± 8.43 µM; in series [1] (PBMC), greater than 100 µM. Also, the “SI (selectivity index)” value in the series on CML cell line K562 is reported as greater than 1.44.

Turning to `CC1(C)CC[C@]2(C(=O)OCc3ccccc3)CC[C@]3(C)C(=CC[C@@H]4[C@@]5(C)CC[C@H](O)[C@@](C)(CO)[C@@H]5CC[C@]43C)[C@@H]2C1` [PT4, Hederagenin benzyl ester], the half-inhibitory concentration (IC50) with CML cell line K562 (setting [2]) came to 6.48 ± 1.27 µM; in series [1] (PBMC), 23.1 ± 3.11 µM. The “cytotoxicity on K562 relative to parent triterpene HE” value with CML cell line K562 (fold vs HE) is given as “more than 15 times”. In addition, the “SI (selectivity index)” value in the series with CML cell line K562 was determined as 3.56.

In the case of `C[C@H]1[C@H](C)CC[C@]2(C(=O)OCc3ccccc3)CC[C@]3(C)C(=CC[C@@H]4[C@@]5(C)CC[C@H](O)C(C)(C)[C@@H]5CC[C@]43C)[C@H]12` [PT6, Ursolic acid benzyl ester], the IC50 stood at 21.8 ± 1.24 µM in the series with CML cell line K562 (setting [2]) and 43.3 ± 1.93 µM in series [1] (PBMC). In addition, in the series with CML cell line K562, the “SI (selectivity index)” value is 1.99.

Regarding `C[C@H]1[C@H](C)CC[C@]2(C(=O)O)CC[C@]3(C)C(=CC[C@@H]4[C@@]5(C)CC[C@H](O)C(C)(C)[C@@H]5CC[C@]43C)[C@H]12` [UA, ursolic acid, reference compound], the results for the IC50 (with CML cell line K562 (setting [2]); in series [1] (PBMC)) were 16.5 ± 1.13 µM and greater than 100 µM, respectively. Moreover, the “SI (selectivity index)” value in the series on CML cell line K562 is reported as greater than 6.06.

gypsogenin [GP, reference compound]: the IC50 with CML cell line K562 (MTT, 24 h exposure) was 12.7 ± 2.15 µM; in series [1], greater than 100 µM.

(Values after article PMC6804044, “Design, Synthesis and Biological Evaluation of Pentacyclic Triterpene Derivatives: Optimization of Anti-ABL Kinase Activity” (Molecules, 2019).)
